Results published in patent publication US9555039B2, “Piperidine derivatives and compositions for the inhibition of nicotinamide phosphoribosyltransferase (NAMPT)” (Forma TM, LLC., priority 2011, dated 2017).

Key:
[1] = target: T1, Recombinant His-tagged NAMPT (Homo sapiens, UniProt P43490); assay: Biochemical inhibition assay: NAMPT enzymatic reaction, NMN quantified by mass spectrometry; conditions: 33 nM NAMPT, 1 μM NAM, 100 μM PRPP, 2.5 mM ATP, 30 minutes at room temperature; read-out: Biochem IC50
T1 construct: His; host or cells: E. coli
Procedure: Biochemical Inhibition Assay
NAMPT Protein Purification
Recombinant His-tagged NAMPT was produced in E. coli cells, purified over a Ni column, and further purified over a size-exclusion column by XTAL Biostructures.
The NAMPT Enzymatic Reaction
The NAMPT enzymatic reactions were carried out in Buffer A (50 mM Hepes pH 7.5, 50 mM NaCl, 5 mM MgCl2, and 1 mM THP) in 96-well V-bottom plates. The compound titrations were performed in a separate dilution plate by serially diluting the compounds in DMSO to make a 100× stock. […] The compound and enzyme mix was incubated for 15 minutes at room temperature, then 10 μL of 10× substrate and co-factors in Buffer A were added to the test well to make a final concentration of 1 μM NAM, 100 μM 5-Phospho-D-ribose 1-diphosphate (PRPP), and 2.5 mM Adenosine 5′-triphosphate (ATP). The reaction was allowed to proceed for 30 minutes at room temperature, then was quenched with the addition of 11 μL of a solution of formic acid and L-Cystathionine to make a final concentration of 1% formic acid and 10 μM L-Cystathionine. Background and signal strength was determined by addition (or non-addition) of a serial dilution of NMN to a pre-quenched enzyme and cofactor mix.
A mass spectrometry-based assay was used to measure the Nampt reaction product (NMN) and the internal control (L-Cystathionine). NMN and L-Cystathionine were detected using the services of Biocius Lifesciences with the RapidFire system. In short, the NMN and L-Cystathionine are bound to a graphitic carbon cartridge in 0.1% formic acid, eluted in 30% acetonitrile buffer, and injected into a Sciex 4000 mass spectrometer. The components of the sample were ionized with electrospray ionization and the positive ions were detected. […] The fragments are quantified and the analyzed by the following method.
First the NMN signal is normalized to the L-Cystathionine signal by dividing the NMN signal by the L-Cystathionine signal for each well. The signal from the background wells are averaged and subtracted from the test plates.
Wherein x denotes the average signal of the compound treated wells and y denotes the average signal of the DMSO treated wells.
IC50s are Determined Using Excel and this Formula.
Wherein X denotes the compound concentration 1, Y denotes the compound concentration 2, XX denotes the % inhibition at compound concentration 1 (X), and YY denotes the % inhibition at compound concentration 2 (Y).

[2] = system: A2780 cells; assay: In-vitro cell proliferation assay (SRB, 72 hours); type: cell-based; conditions: Homo sapiens, sulforhodamine B (SRB) assay
Procedure: In-Vitro Cell Proliferation Assay
After overnight incubation at 37° C. and 5% CO2, the compound titrations were performed in a separate dilution plate by serially diluting the compounds in DMSO to make a 1000× stock. The compounds were then further diluted to 10× final concentration in culture media, whereupon 20 μL of each dilution was added to the plated cells with controls (e.g. DMSO and blank) to make a final volume of 200 μL. The final DMSO concentration in each well was 0.1%. The plates were then incubated for 72 hours at 37° C. in a 5% CO2 incubator. The number of viable cells was then assessed using sulforhodamine B (SRB) assay. Cells were fixed at 4° C. for 1 hour with the addition of 50 μL 30% trichloroacetic acid (TCA) to make a final concentration of 6% TCA. The plates were washed four times with H2O and allowed to dry for at least 1 hour, whereupon 100 μL of a 4% SRB in 1% acetic acid solution was added to each well and incubated at room temperature for at least 30 minutes. The plates were then washed three times with 1% acetic acid, dried, and treated with 100 μL of 10 mM Tris-Base solution. The plates were then read in a microplate reader at an absorbance of 570 nm. Background was generated on a separate plate with media only.
Method for Determining % Inhibition
First, the signals from the background plate are averaged, then the background was subtracted from the test plates.
wherein x denotes the average signal of the compound-treated cells and y denotes the average signal of the DMSO-treated cells.
wherein X denotes the compound concentration 1, Y denotes the compound concentration 2, XX denotes the % inhibition at compound concentration 1 (X), and YY denotes the % inhibition at compound concentration 2 (Y).

T1 sequence (P43490 whole entry): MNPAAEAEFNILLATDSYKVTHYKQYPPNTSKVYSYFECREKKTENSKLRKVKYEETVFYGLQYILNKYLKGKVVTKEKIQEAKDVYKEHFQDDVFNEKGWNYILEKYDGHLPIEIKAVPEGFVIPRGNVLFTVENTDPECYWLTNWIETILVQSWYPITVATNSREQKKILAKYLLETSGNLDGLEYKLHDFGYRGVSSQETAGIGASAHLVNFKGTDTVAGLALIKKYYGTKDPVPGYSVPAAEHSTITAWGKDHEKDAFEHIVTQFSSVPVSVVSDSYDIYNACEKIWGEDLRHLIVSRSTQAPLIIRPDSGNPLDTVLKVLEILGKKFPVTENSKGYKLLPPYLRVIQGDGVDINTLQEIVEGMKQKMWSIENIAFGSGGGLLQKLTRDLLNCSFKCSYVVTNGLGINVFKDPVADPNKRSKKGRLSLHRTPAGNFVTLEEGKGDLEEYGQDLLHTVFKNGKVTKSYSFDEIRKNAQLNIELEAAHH

Row | SMILES | IC50 [1] [nM] | IC50 [2] [nM]
1 | CC(C)Oc1ccc(C(=O)N2CCC(CCCCNC(=O)c3cc4ccncc4s3)CC2)cc1 [N-[4-(1-{[4-(propan-2-yloxy)phenyl]carbonyl}piperidin-4-yl)butyl]thieno[2,3-c]pyridine-2-carboxamide] | 40 | 100 to 1000
2 | Cc1ccc(F)cc1C(=O)N1CCC(CCCCNC(=O)c2cc3cnccc3[nH]2)CC1 [N-(4-{1-[(5-fluoro-2-methylphenyl)carbonyl]piperidin-4-yl}butyl)-1H-pyrrolo[3,2-c]pyridine-2-carboxamide] | 14.2 | 2.3
3 | O=C(NCCCCC1CCN(C(=O)c2c(F)cccc2F)CC1)c1cc2ccncc2s1 [N-(4-{1-[(2,6-difluorophenyl)carbonyl]piperidin-4-yl}butyl)thieno[2,3-c]pyridine-2-carboxamide] | 4.3 | 0.8
4 | O=C(NCCCCC1CCN(C(=O)c2c(F)cccc2F)CC1)c1ccc2nccn2c1 [N-(4-{1-[(2,6-difluorophenyl)carbonyl]piperidin-4-yl}butyl)imidazo[1,2-a]pyridine-6-carboxamide] | 4.7 | 1.2
5 | COc1ccc(C(=O)N2CCC(CCCCNC(=O)c3cc4cnccc4[nH]3)CC2)cc1OC [N-(4-{1-[(3,4-dimethoxyphenyl)carbonyl]piperidin-4-yl}butyl)-1H-pyrrolo[3,2-c]pyridine-2-carboxamide] | 68.6 | 3
6 | COc1cccc(OC)c1C(=O)N1CCC(CCCCNC(=O)c2cc3ccncc3s2)CC1 [N-(4-{1-[(2,6-dimethoxyphenyl)carbonyl]piperidin-4-yl}butyl)thieno[2,3-c]pyridine-2-carboxamide] | 5.6 | 1.2
7 | O=C(NCCCCC1CCN(C(=O)c2ccc3[nH]ccc3c2)CC1)c1cc2ccncc2s1 [N-(4-{1-[(1H-indol-5-yl)carbonyl]piperidin-4-yl}butyl)thieno[2,3-c]pyridine-2-carboxamide] | 42.7 | 71.1
8 | O=C(NCCCCC1CCN(S(=O)(=O)c2cccnc2)CC1)c1cc2cnccc2[nH]1 [N-{4-[1-(pyridine-3-sulfonyl)piperidin-4-yl]butyl}-1H-pyrrolo[3,2-c]pyridine-2-carboxamide] | 16.1 | 13.9
9 | O=C(NCCCCC1CCN(C(=O)c2ccc(C(F)(F)F)cn2)CC1)c1cc2cnccc2[nH]1 [N-[4-(1-{[5-(trifluoromethyl)pyridin-2-yl]carbonyl}piperidin-4-yl)butyl]-1H-pyrrolo[3,2-c]pyridine-2-carboxamide] | 137 | 59.6
10 | O=C(NCCCCC1CCN(C(=O)c2ccccc2F)CC1)c1cc2ccncc2s1 [N-(4-{1-[(2-fluorophenyl)carbonyl]piperidin-4-yl}butyl)thieno[2,3-c]pyridine-2-carboxamide] | 8.8 | 0.6
11 | O=C(NCCCCC1CCN(C(=O)c2cc3cc(F)ccc3[nH]2)CC1)c1cc2cnccc2[nH]1 [N-(4-{1-[(5-fluoro-1H-indol-2-yl)carbonyl]piperidin-4-yl}butyl)-1H-pyrrolo[3,2-c]pyridine-2-carboxamide] | 97.1 | 100 to 1000
12 | Cn1cnc(C(=O)N2CCC(CCCCNC(=O)c3ccc4nccn4c3)CC2)c1 [N-(4-{1-[(1-methyl-1H-imidazol-4-yl)carbonyl]piperidin-4-yl}butyl)imidazo[1,2-a]pyridine-6-carboxamide] | 56.7 | 107
13 | O=C(NCCCCC1CCN(S(=O)(=O)c2ccc(Cl)cc2)CC1)c1cc2cnccc2[nH]1 [N-(4-{1-[(4-chlorobenzene)sulfonyl]piperidin-4-yl}butyl)-1H-pyrrolo[3,2-c]pyridine-2-carboxamide] | 49.9 | 27.5
14 | Cc1nc(C(=O)N2CCC(CCCCNC(=O)c3cc4ccncc4s3)CC2)cs1 [N-(4-{1-[(2-methyl-1,3-thiazol-4-yl)carbonyl]piperidin-4-yl}butyl)thieno[2,3-c]pyridine-2-carboxamide] | 22.4 | 100 to 1000
15 | O=C(NCCCCC1CCN(C(=O)c2cc3ccccc3s2)CC1)c1cc2ccncc2s1 [N-(4-{1-[(1-benzothiophen-2-yl)carbonyl]piperidin-4-yl}butyl)thieno[2,3-c]pyridine-2-carboxamide] | 17.7 | 100 to 1000
16 | O=C(NCCCCC1CCN(C(=O)c2ccc(Cl)c(Cl)c2)CC1)c1cc2ccncc2s1 [N-(4-{1-[(3,4-dichlorophenyl)carbonyl]piperidin-4-yl}butyl)thieno[2,3-c]pyridine-2-carboxamide] | 34.5 | 100 to 1000
17 | CSc1ncccc1C(=O)N1CCC(CCCCNC(=O)c2cc3ccncc3s2)CC1 [N-[4-(1-{[2-(methylsulfanyl)pyridin-3-yl]carbonyl}piperidin-4-yl)butyl]thieno[2,3-c]pyridine-2-carboxamide] | 10.1 | 1.4
18 | COc1ccccc1C(=O)N1CCC(CCCCNC(=O)c2cc3ccncc3s2)CC1 [N-(4-{1-[(2-methoxyphenyl)carbonyl]piperidin-4-yl}butyl)thieno[2,3-c]pyridine-2-carboxamide] | 7.7 | 3.3
19 | O=C(NCCCCC1CCN(C(=O)c2csc(-c3cccnc3)n2)CC1)c1cc2cnccc2[nH]1 [N-[4-(1-{[2-(pyridin-3-yl)-1,3-thiazol-4-yl]carbonyl}piperidin-4-yl)butyl]-1H-pyrrolo[3,2-c]pyridine-2-carboxamide] | 81.1 | 14.9
20 | COc1cc(Cl)ccc1C(=O)N1CCC(CCCCNC(=O)c2ccc3nccn3c2)CC1 [N-(4-{1-[(4-chloro-2-methoxyphenyl)carbonyl]piperidin-4-yl}butyl)imidazo[1,2-a]pyridine-6-carboxamide] | 80.6 | 27
21 | O=C(NCCCCC1CCN(C(=O)c2ccc(C(F)(F)F)nc2)CC1)c1ccc2nccn2c1 [N-[4-(1-{[6-(trifluoromethyl)pyridin-3-yl]carbonyl}piperidin-4-yl)butyl]imidazo[1,2-a]pyridine-6-carboxamide] | 91.9 | 93
22 | O=C(NCCCCC1CCN(C(=O)c2csc(C(F)(F)F)n2)CC1)c1cc2ccncc2s1 [N-[4-(1-{[2-(trifluoromethyl)-1,3-thiazol-4-yl]carbonyl}piperidin-4-yl)butyl]thieno[2,3-c]pyridine-2-carboxamide] | 94 | 100 to 1000
23 | COc1cc(Cl)ccc1C(=O)N1CCC(CCCCNC(=O)c2cc3cnccc3[nH]2)CC1 [N-(4-{1-[(4-chloro-2-methoxyphenyl)carbonyl]piperidin-4-yl}butyl)-1H-pyrrolo[3,2-c]pyridine-2-carboxamide] | 62.1 | 6.1
24 | O=C(NCCCCC1CCN(C(=O)c2cccnc2)CC1)c1ccc2nccn2c1 [N-(4-{1-[(pyridin-3-yl)carbonyl]piperidin-4-yl}butyl)imidazo[1,2-a]pyridine-6-carboxamide] | 12.7 | 27.4
25 | CC(=O)N1CCC(C(=O)N2CCC(CCCCNC(=O)c3cc4cnccc4[nH]3)CC2)CC1 [N-(4-{1-[(1-acetylpiperidin-4-yl)carbonyl]piperidin-4-yl}butyl)-1H-pyrrolo[3,2-c]pyridine-2-carboxamide] | 134 | 23.9
26 | CSc1ncccc1C(=O)N1CCC(CCCCNC(=O)c2cc3cnccc3[nH]2)CC1 [N-[4-(1-{[2-(methylsulfanyl)pyridin-3-yl]carbonyl}piperidin-4-yl)butyl]-1H-pyrrolo[3,2-c]pyridine-2-carboxamide] | 8.3 | 0.7
